Data reported in patent US4336192A, “5,6-Dihydro-11-alkylene-morphanthridin-6-ones” (BASF Aktiengesellschaft, priority 1979, dated 1982).
“Also recorded” adds a separate entry of the source. Where a name gives a salt, the structure may show the parent alone. Read-outs that look alike come from different tables or passages of the source.

How the values were obtained:
Acute toxicity = conditions: mouse, in vivo, ip, read-out: Toxicity LD 50
Description: The substances are administered intraperitoneally to groups of 5-10 female NMRI mice.

female NMRI mice [1] = experiment: Sedative effect: orientation hypermotility in a new environment, measured photoelectrically; type: in vivo; conditions: for ED50: Mus musculus, 0.5 h, read-out: Sedative effect ED 50%, oral, female NMRI mice, dose which reduces orientation hypermotility by 50% vs untreated controls, 30 min after administration; for Sedative effect (in words): result in words
Description: The substances are administered orally to groups of 4×3 or 8×3 female NMRI mice. The orientation hypermotility induced by a new environment is determined photoelectrically, 30 minutes after the administration of the substances, for a period of 30 minutes.

female NMRI mice [2] = experiment: Anti-cholinergic effect: protection against death from Physostigmin; type: in vivo; conditions: for ED50: Mus musculus, read-out: Anti-cholinergic effect ED 50%, oral, 30 min before Physostigmin 0.825 mg/kg s.c., female NMRI mice, dose which protects 50% of animals against death; for Anti-cholinergic effect (in words): result in words, Physostigmin antagonism; for Anti-cholinergic effect R.A. (relative activity): Clozapin = 1.00
Description: 3. Anti-cholinergic effect
A lethal dose (0.825 mg/kg) of Physostigmin is administered subcutaneously to groups of 10 female NMRI mice. The test substances are administered orally 30 minutes before administering the Physostigmin.

[3] = test system: female Sprague-Dawley rats; experiment: Apomorphine-antagonistic effect: apomorphine-triggered jaw motions (mandibulogram); type: in vivo; conditions: for ED50: Rattus norvegicus, sc, read-out: Apomorphine antagonism ED 50%, female Sprague-Dawley rats, 1.5 mg of apomorphine/kg s.c., dose which reduces number of jaw movements by 50%; for Apomorphine-antagonistic effect (in words): result in words
Description: 4. Apomorphine-antagonistic effect
Jaw motions are triggered in groups of 4-6 female Sprague-Dawley rats by subcutaneous administration of 1.5 mg of apomorphine/kg, and are recorded by means of implanted electrodes (KUBACKI mandibulogram, 1978).

female NMRI mice [4] = experiment: Analgesic effect: D'amour and Smith tail-flick method; type: in vivo; conditions: for Analgesic effect (in words): result in words
Description: The analgesic effect is determined by means of the D'amour and Smith (1941) tail-flick method. In this, the substances are administered intraperitoneally to groups of 10 female NMRI mice. The pain reaction is triggered 30 minutes after administration. The reaction time, until the tail is flicked out of the way after exposure to a focused light beam, is measured.

[5] = intraperitoneal, female NMRI mice, dose which causes death of 50% of animals

| SMILES | LD50 (Acute toxicity; [5]) [mg/kg] | ED50 (female NMRI mice [1]) [mg/kg] | Sedative effect (in words) (female NMRI mice [1]) | ED50 (female NMRI mice [2]) [mg/kg] | Anti-cholinergic effect (in words) (female NMRI mice [2]) | ED50 [3] [mg/kg] | LD50 (Acute toxicity) [mg/kg] | Apomorphine-antagonistic effect (in words) [3] | Anti-cholinergic effect R.A. (relative activity) (female NMRI mice [2]) | Analgesic effect (in words) (female NMRI mice [4]) | Analgesic effect ED 100% (female NMRI mice [4]; intraperitoneal, female NMRI mice, dose which lengthens tail-flick reaction time by 100% vs control, 30 min after administration) | Analgesic effect R.A. (relative activity) (female NMRI mice [4]; relative activity, Clozapin = 1.00) |
| --- | --- | --- | --- | --- | --- | --- | --- | --- | --- | --- | --- | --- |
| Cc1ccc2c(c1)C(=CC#N)c1ccccc1C(N1CCN(C)CC1)=N2 (mixture of isomers) [Example 31 (cis-trans mixture), cis,trans-2-Methyl-11-cyanomethylene-6-(4-methylpiperazin-1-yl)-morphanthridine] | 50 | 3.35 | relatively strong sedative effects | 2.74 | manifests itself especially | 42 |  |  |  |  |  |  |
| CN1CCN(C2=Nc3ccccc3/C(=C/C#N)c3ccccc32)CC1 [Example 17 (cis-isomer), cis 11-cyanomethylene-6-(4-methylpiperazin-1-yl)-morphanthridine] |  | 1.98 | strong sedative effects; also recorded: responsible for the sedative effect | 17.4 | relative to Clozapin, an approximately comparable anti-cholinergic effect | 46 | 147 | lower apomorphine-antagonistic effect |  |  |  |  |
| C[N+]1([O-])CCN(C2=Nc3ccccc3/C(=C\C#N)c3ccccc32)CC1 [Example 44 (trans-isomer), trans-11-cyanomethylene-6-(4-methyl-4-oxy-piperazin-1-yl)-morphanthridine] | 559 | 100 | little or no sedative effect | 3.74 | manifests itself especially; also recorded: stronger anti-cholinergic and apomorphine-antagonistic effect | 25 |  | stronger anti-cholinergic and apomorphine-antagonistic effect | 3.77 |  |  |  |
| CCN1CCN(C2=Nc3ccccc3C(=CC#N)c3ccccc32)CC1 (mixture of isomers) [Example 36 (cis-trans mixture), cis,trans-11-Cyanomethylene-6-(4-ethyl-piperazin-1-yl)-morphanthridine] |  | 3.34 | relatively strong sedative effects | 7.8 | manifests itself especially | 43 | 100 |  |  |  |  |  |
| Cc1ccc2c(c1)N=C(N1CCN(C)CC1)c1ccccc1/C2=C\C#N [Example 30 (cis-isomer), cis-3-methyl-11-cyanomethylene-6-(4-methyl-piperazin-1-yl)-morphanthridine] |  | 1.06 | strong sedative and strong analgesic effects |  |  | 85 | 287 | weaker apomorphine-antagonistic effect than that of Clozapin and Perlapin |  | substantially more active than Clozapin; also recorded: strong sedative and strong analgesic effects |  |  |
| C[N+]1([O-])CCN(C2=Nc3ccccc3C(=CC#N)c3ccccc32)CC1 (mixture of isomers) [Example 44 (cis-trans mixture), cis,trans-11-Cyanomethylene-6-(4-methyl-4-oxy-piperazin-1-yl)-morphanthridine.2H2 O] | 464 | 14.3 |  | 1.98 | manifests itself especially | 85 |  |  | 7.12 |  |  |  |
| N#CC=C1c2ccccc2N=C(N2CCCNCC2)c2ccccc21 (mixture of isomers) [Example 37 (cis-trans mixture), cis,trans-11-Cyanomethylene-6-homopiperazin-1-yl-morphanthridine.HCl.H2 O] | 69.8 | > 21.5 |  | 5.49 | manifests itself especially | > 100 |  |  | 2.57 |  |  |  |
| CN1CCN(C2=Nc3cc(Cl)ccc3Nc3ccccc32)CC1 [Clozapin, reference compound] | 215 | 4.74 |  | 14.1 |  | 8 |  |  | 1.00 |  |  |  |
| C[N+]1([O-])CCN(C2=Nc3ccccc3/C(=C/C#N)c3ccccc32)CC1 [Example 44 (cis-isomer), cis-11-cyanomethylene-6-(4-methyl-4-oxy-piperazin-1-yl)-morphanthridine] | 261 | 17.6 |  | 100 |  | > 100 |  |  | 0.14 |  |  |  |
| CN1CCN(C2=Nc3ccccc3Cc3ccccc32)CC1 [Perlapin, reference compound] | 215 | 2.05 |  | > 21.5 |  | 22 |  |  | < 0.66 |  | > 21.5 |  |
| CN1CCN(C2=Nc3ccccc3C(=CC#N)c3ccccc32)CC1 (mixture of isomers) [Example 17 (cis-trans mixture), cis,trans-11-cyanomethylene-6-(4-methyl-piperazin-1-yl)-morphanthridine] |  | 2.78 | relatively strong sedative effects; also recorded: more strongly sedative | 6.26 | manifests itself especially; also recorded: more strongly sedative and anti-cholinergic | 22 | 121 | somewhat weaker than that of Clozapin |  | not analgesically active |  |  |
| CN1CCN(C2=Nc3ccccc3/C(=C\C#N)c3ccccc32)CC1 [Example 17 (trans-isomer), trans-11-cyanomethylene-6-(4-methyl-piperazin-1-yl)-morphanthridine] | 332 | > 21.5 | very slight | 4.7 | manifests itself especially; also recorded: particularly exhibits an anti-cholinergic and apomorphine-antagonistic effect | 12 |  | particularly exhibits an anti-cholinergic and apomorphine-antagonistic effect |  |  |  |  |
| N#CC=C1c2ccccc2N=C(NCCN2CCCCC2)c2ccccc21 (mixture of isomers) [Example 39 (cis-trans mixture), cis,trans-11-Cyanomethylene-6-(2-piperidin-1-ylethylamino)-morphanthridine.1/2H2 O] | 5.35 | 1.61 | strong sedative effects | > 10 |  | 46 |  |  | > 1.41 |  |  | > 0.21 |
| Cc1ccc2c(c1)N=C(N1CCN(C)CC1)c1ccccc1C2=CC#N (mixture of isomers) [Example 30 (cis-trans mixture), cis,trans-3-Methyl-11-cyanomethylene-6-(4-methylpiperazin-1-yl)-morphanthridine] | 178 | 0.804 | strong sedative effects; also recorded: high sedative activity (greater than that of Clozapin and Perlapin) | 31.2 | moderate anti-cholinergic effect | 35 |  |  | 0.45 | An analgesic effect is found; also recorded: stronger analgesic effect |  |  |
| CCN1CCN(C2=Nc3ccccc3/C(=C\C#N)c3ccccc32)CC1 [Example 36 (trans-isomer), trans-11-cyanomethylene-6-(4-ethyl-piperazin-1-yl)-morphanthridine] | > 100 | > 100 | little or no sedative effect | 5.6 | manifests itself especially; also recorded: stronger anti-cholinergic and apomorphine-antagonistic effect | 22 |  | stronger anti-cholinergic and apomorphine-antagonistic effect |  |  |  |  |
| Cc1ccc2c(c1)N=C(N1CCN(C)CC1)c1ccccc1/C2=C/C#N [Example 30 (trans-isomer), trans-3-methyl-11-cyanomethylene-6-(4-methylpiperazin-1-yl)-morphanthridine] | > 100 | 33.6 | little or no sedative effect | 12.3 | stronger anti-cholinergic and apomorphine-antagonistic effect | 19 |  | stronger anti-cholinergic and apomorphine-antagonistic effect |  |  |  |  |
